Measured values published in article PMC2215435 (The Journal of General Physiology, 1981).
Read-outs that look alike come from different tables or passages of the source.

System: potassium channel
Format: cell-based, squid Loligo pealei
Conditions: for rate constant of block b: calculated from Kd = l/b and tau decay (Table IV); for tau decay / blocking rate constant K (fit of current with Eq. 2) / unblocking rate constant L (fit of current with Eq. 2): 30 μM; for blocking rate constant K (fit of current with Eq. 2) / unblocking rate constant L (fit of current with Eq. 2): Fig. 1B
[1] = +100 mV, several experiments, Fig. 3B, r = 0.98

SMILES	rate constant of unblock l (+60 mV (Table IV))	rate constant of block b (+60 mV)	rate constant of unblock l (+80 mV (Table IV))	rate constant of block b (+80 mV)	rate constant of unblock l (+100 mV (Table IV))	rate constant of block b (+100 mV)	tau decay (+100 mV, 6 °C)	tau decay (+100 mV, 8 °C)	tau decay (+100 mV, 16 °C)	blocking rate constant K (fit of current with Eq. 2) (+60 mV)	unblocking rate constant L (fit of current with Eq. 2) (+60 mV)	blocking rate constant K (fit of current with Eq. 2) (+100 mV)	unblocking rate constant L (fit of current with Eq. 2) (+100 mV)	time constant of decay of potassium current (tau decay) (10 μM, +100 mV)	time constant of decay of potassium current (tau decay) (33 μM, +100 mV)	time constant of decay of potassium current (tau decay) (100 μM, +100 mV)	b from straight line 1/tau decay = b[QA] + l [1]	l from straight line 1/tau decay = b[QA] + l [1]
CCCCCCC[N+](CC)(CC)CC [C7TE, heptyltriethylammonium]	0.071 ms-1	2.8 ms-1 mM-1	0.072 ms-1	3.4 ms-1 mM-1	0.063 ms-1	3.6 ms-1 mM-1												
CCCCCCCCC[N+](CC)(CC)CC [C9TE, nonyltriethylammonium]	0.030 ms-1	5.5 ms-1 mM-1	0.028 ms-1	6.1 ms-1 mM-1	0.033 ms-1	7.3 ms-1 mM-1												
CCCCCCCCCC[N+](CC)(CC)CC [C10TE, decyltriethylammonium]	0.019 ms-1	5.2 ms-1 mM-1	0.019 ms-1	6.0 ms-1 mM-1	0.023 ms-1	6.7 ms-1 mM-1	5.78 ms	3.83 ms	2.06 ms									
CCCCCCCCCC[N+](CCO)(CCO)CCO [C10TEtoh, decyltriethanolammonium]	0.084 ms-1	0.43 ms-1 mM-1	0.097 ms-1	0.55 ms-1 mM-1	0.110 ms-1	0.65 ms-1 mM-1												
CCCCCCCCCC[N+](CCC)(CCC)CCC [C10TP, decyltripropylammonium]	0.015 ms-1	0.13 ms-1 mM-1	0.016 ms-1	0.15 ms-1 mM-1	0.015 ms-1	0.17 ms-1 mM-1												
CCCCCCCC[N+](CC)(CC)CCO [CsDEEtoh, octyldiethylethanolammonium]		6.2 ms-1 mM-1		8.0 ms-1 mM-1		9.4 ms-1 mM-1				0.162 ms-1	0.118 ms-1	0.234 ms-1	0.112 ms-1					
CCCCCCCC[N+](CC)(CC)CCCO [CsDEProh, octyldiethylpropanolammonium]	0.0236 ms-1	2.56 ms-1 mM-1	0.0308 ms-1	3.55 ms-1 mM-1	0.0262 ms-1	4.10 ms-1 mM-1								11.42 ms	6.88 ms	2.21 ms	4.0 ms-1 mM-1	0.032 ms-1
CCCCCCCC[N+](CC)(CC)CC [CsTE, octyltriethylammonium]	0.038 ms-1	5.1 ms-1 mM-1	0.038 ms-1	5.5 ms-1 mM-1	0.043 ms-1	5.9 ms-1 mM-1												
CCCCCCCC[N+](CCC)(CCC)CCC [CsTP, octyltripropylammonium]	0.021 ms-1	0.95 ms-1 mM-1	0.031 ms-1	1.22 ms-1 mM-1	0.039 ms-1	1.40 ms-1 mM-1												
CC[N+](CC)(CCO)CCCc1ccccc1 [~PDEEtoh, phenylpropyldiethylethanolammonium]	0.024 ms-1	3.4 ms-1 mM-1	0.037 ms-1	3.9 ms-1 mM-1	0.033 ms-1	4.3 ms-1 mM-1												
CC[N+](CC)(CC)CCCc1ccccc1 [~PTE, phenylpropyltriethylammonium]	0.015 ms-1	2.5 ms-1 mM-1	0.013 ms-1	2.7 ms-1 mM-1	0.025 ms-1	3.5 ms-1 mM-1												
